{"source": "patent US11779602B2", "about": "“Methods of use for CAR T cells” (ENDOCYTE, INC., priority 2018, dated 2023)", "key": {"[1]": {"system": "target cells expressing surface folate receptor (OV90, SKOV3, IGROV1, HOS-FRα, MDA-MB-231)", "test": "Two day co-culture target cell kill assay (Annexin V)", "assay_type": "cell-based, human", "conditions": "100 nM EC17 30 min pre-treatment, E:T 1:1, two days", "protocol": "On day −1, 100,000 target cells were plated in 2 ml of growth media per well of a 12-well tissue culture plate to allow target cells to adhere and recover. On day 0, wells which received EC17 bridge molecule were treated with EC17 at 100 nM for 30 min in the tissue culture incubator. Afterwards, all media was washed off and replaced with fresh growth media free of folate and EC17. During the EC17 incubation, T cells were harvested, counted and after EC17 treatment was completed, 100,000 E2 CAR T cells were directly added onto each well of target cells in a total of 3 ml of growth media at a ratio of 1:1 (E:T) and incubated for both 1 and 2 days under standard tissue culture humidified conditions of 37° C. at 5% CO2. One day co-culture conditions were used to assay E2 CAR T cell activation by target cells and two-day incubation was used to assay target cell death. […]\nTo confirm that E2 CAR T cell activation also translates to successful killing of the target cells we performed a two-day co-culture assay then looked at target cell (EGFR-CD3-) events via flow cytometry and determined the percentage of target cell staining with the apoptotic surface marker, Annexin V stain. […]"}, "[2]": {"system": "FR+ tumor cell targets (MDA-MB-231, THP1-FRβ, HOS-FRα)", "test": "CAR-T cell activation markers (CD69, CD137, PD1) in co-culture with EC17-preloaded targets", "assay_type": "cell-based, human", "conditions": "E/T 1:1, 24 hours", "protocol": "To study CAR-T cell activation in the presence of FR+ tumor cell targets (FIGS. 53A-D), co-culture experiments were initially carried out with MDA-MB-231, THP1-FRβ and HOS-FRα. […] After 24 hours of co-culture, the surface expression of T cell activation markers CD69, CD137 (4-1BB), and PD1 were analyzed by flow cytometry. For T cell exhaustion studies (FIGS. 54A-C), FR+ (KB, MDA-MB-231, HOS-FRα^fLuc, THP1-FRβ) and FR-negative (HOS-143b^fLuc, THP1-FG12) tumor cell lines were used as targets. Here, target cells were incubated on day 0 without or with 0.1 and 10 nM of EC17 for 30 min at 37° C. and the status of EC17 “pre-loading” was assessed by counterstaining cell-surface EC17 with an anti-FITC antibody (FIG. 61A). Three days later, the surface expression of PD1, LAG3, and TIM3 inhibitor receptors on co-cultured CAR-T cells were analyzed and higher frequencies of double- and triple-positive cells were considered approaching an exhausted phenotype.\nTo examine antigen-dependent CAR-T cell activation, MDA-MB-231, THP1-FRβ and HOS-FRα cells were preloaded with 100 nM EC17 over 30 min. […] After 24 hours of co-culture, we measured the surface expression of T cell activation markers CD69, CD137 (4-1BB) and PD1 (FIGS. 53A-D). […] Three days later, co-cultured CAR-T cells were measured for upregulation and co-expression of T cell activation/exhaustion markers PD1, LAGS and TIM3. […]"}}, "data": [{"smiles": "NC1=NC2N=CC(CNc3ccc(C(=O)N[C@@H](CCC(=O)NCCNC(=S)Nc4ccc(-c5c6ccc(=O)cc-6oc6cc(O)ccc56)c(C(=O)O)c4)C(=O)O)cc3)=NC2C(=O)N1", "note": "(stereo partly drawn) [EC17, FA-(γ)-ethylenediamine-FITC]", "values": [{"measurement": "requirement of EC17 binding for target cell kill", "setting": "[1]", "result": "required for cell kill"}, {"measurement": "CAR-T cell activation (CD69, CD137, PD1)", "setting": "[2]; MDA-MB-231 and HOS-FRα preloaded with 100 nM EC17 30 min", "result": "strong activators"}, {"measurement": "CAR-T cell activation (CD69, CD137, PD1)", "setting": "[2]; THP1-FRβ preloaded with 100 nM EC17 30 min", "result": "did trigger CAR-T cell activation, but at lower levels"}]}]}
